# Assays:
# [1] = molecular target: T1, IRAK4 enzyme (Homo sapiens, UniProt Q9NWZ3); experiment: IRAK4 enzyme inhibition degree (bead-based kinase assay, peptide substrate BMKC-2, 100 μM ATP); assay type: biochemical; details: for inhibition at 1 µM: compound 1 μM
# T1 sequence (Q9NWZ3 1-460): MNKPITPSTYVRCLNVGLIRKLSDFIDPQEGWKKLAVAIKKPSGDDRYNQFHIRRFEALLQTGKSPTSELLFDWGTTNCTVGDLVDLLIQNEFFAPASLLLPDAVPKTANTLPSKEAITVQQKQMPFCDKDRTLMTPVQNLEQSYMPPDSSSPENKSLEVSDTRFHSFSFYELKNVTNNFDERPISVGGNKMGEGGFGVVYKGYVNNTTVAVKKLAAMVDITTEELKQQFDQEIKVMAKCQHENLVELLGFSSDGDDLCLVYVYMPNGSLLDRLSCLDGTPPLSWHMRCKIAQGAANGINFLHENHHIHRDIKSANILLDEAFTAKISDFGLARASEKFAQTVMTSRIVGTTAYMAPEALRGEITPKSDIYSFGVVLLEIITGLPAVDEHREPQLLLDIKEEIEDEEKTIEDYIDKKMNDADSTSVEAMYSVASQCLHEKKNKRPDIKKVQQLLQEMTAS
# Experimental: 2.5 μl of a compound diluted to 4-fold of a final concentration was put into a 384-well white plate (low volume). 2.5 μl of 0.4 ng/μl IRAK4 enzyme was added thereto, and the resulting mixture was totally reacted for 10 minutes. 5 μl of a mixed liquid of a 6 μM peptide substrate (BMKC-2) and 100 μM ATP was added thereto, the resulting mixture was reacted at room temperature for 60 minutes, then 2.5 μl of 10 mM EDTA was added thereto, and the resulting mixture was reacted again for 10 minutes. 40 nM anti-phospho Thr antibody was aliquoted to 2.5 μl each, 5 μl of a mixed solution of a 160 μl/ml acceptor bead and a donor bead was added thereto, and then the resulting mixture was reacted at room temperature for 60 minutes. Fluorescence signals were measured using a bead experimental apparatus (Fusion alpha-FP Microplate Reader, Perkin Elmer Inc.).
# From the detected signal, an activity inhibition rate [% inhibition degree=(the average value of a compound−the average value of a negative control)/(the average value of a positive control−the average value of a negative control)×100] was calculated, and is shown in [Table 1]. Further, a % inhibition degree of the compound at each concentration was obtained, and then a 50% inhibition concentration (IC50 value) was analyzed by a non-linear regression analysis.
# [2] = test system: TNF-α secretion, peripheral blood mononuclear cells (PBMCs); experiment: Suppression of TNF-α secretion in LPS-treated PBMCs (ELISA); assay type: cell-based; details: PBMC, 100 ng/ml LPS, 24 hours, read-out: TNF-α, % inhibition degree
# Experimental: (§1) Peripheral blood mononuclear cells (PBMCs) isolated from whole blood were distributed in a 96-well plate. TNF-α was aliquoted at a density of 1×10^5 cells/well, IFN-α was aliquoted at a density of 2×10^5 cells/well, and TNF-α and IFN-α were treated with a compound diluted to 4-fold of a final concentration and totally cultured for 30 minutes. TNF-α was treated with 100 ng/ml lipopolysaccharide (LPS), IFN-α was treated with 500 nM ODN2216 (CpGTLR9 stimulator), and TNF-α and IFN-α were further cultured for 24 hours and 72 hours, respectively. An enzyme-linked immunosorbent assay (ELISA) was performed on TNF-α and IFN-α using an ELISA kit manufactured by BD Biosciences and an ELISA kit manufactured by PBL Assay Science, Inc., respectively. A cell supernatant and a standard drug were put into the ELISA plates and reacted for 2 hours. The plates were washed and a measurement antibody and streptavidin-HRP were sequentially added thereto. After the plates were washed, a TMB substrate was added thereto and reacted in a dark place. The reaction was stopped by adding a stop solution thereto, and the absorbance at 450 nm and 570 nm was measured using an absorber (OPTIMax tunable microplate reader, molecular devices). The experimental results are shown in [Table 2].
# [3] = test system: IFN-α secretion, peripheral blood mononuclear cells (PBMCs); experiment: Suppression of IFN-α secretion in ODN2216-treated PBMCs (ELISA); assay type: cell-based; details: PBMC, 500 nM ODN2216, 72 hours, read-out: IFN-α, % inhibition degree
# Experimental: as §1
# [4] = test system: NF-κB promoter, THP1-Lucia™ NF-κB cell line; experiment: NF-κB promoter inhibition, THP1-Lucia NF-κB cell line; assay type: cell-based; details: 100 ng/ml LPS, 24 hours, read-out: NF-κB, % inhibition degree
# Experimental: (§2) A THP1-Lucia™ NF-κB cell line (Invivogen) was used in an NF-κB inhibition experiment, and a THP1-Lucia™ ISG cell line was used in an ISG inhibition experiment. In the NF-κB inhibition experiment, cells were planted at a density of 1×10^4 cells/well in a 96-well plate, and in the ISG inhibition experiment, cells were planted at a density of 2×10^4 cells/well in a 96-well plate. The cells were treated with a compound diluted to 4-fold of a final concentration, and totally cultured for 30 minutes. NF-κB was treated with 100 ng/ml lipopolysaccharide (LPS), ISG was treated with a stimulator of 1 μg/ml Poly(dA:dT)/LyoVec, and NF-κB and ISG were cultured for 24 hours. 10 μl of a cell supernatant was taken and transferred to a 96-well plate. 50 μl of a Quanti-luc solution was aliquoted using an automatic aliquoter of a measurer (Envision Multilabel Plate Reader, Perkin Elmer, Inc.), and light emission signals were measured.
# [5] = test system: ISG promoter, THP1-Lucia™ ISG cell line; experiment: ISG promoter inhibition, THP1-Lucia ISG cell line; assay type: cell-based; details: 1 μg/ml Poly(dA:dT)/LyoVec, 24 hours, read-out: ISG, % inhibition degree
# Experimental: as §2
IC50 [1] [nM],inhibition at 1 µM [1] [%],SMILES,inhibition at 0.1 µM [2] [%],inhibition at 1 µM [2] [%],inhibition at 0.1 µM [3] [%],inhibition at 1 µM [3] [%],inhibition at 0.1 µM [4] [%],inhibition at 1 µM [4] [%],inhibition at 0.1 µM [5] [%],inhibition at 1 µM [5] [%]
244,37,"Fc1ccc(-c2ccc3[nH]c4ncnc(N[C@H]5CC[C@H](N6CCOCC6)CC5)c4c3c2)c(F)c1 [Compound 6aam, 6-(2,4-difluorophenyl)-N-(trans-4-morpholinocyclohexyl)-9H-pyrimido[4,5-b]indole-4-amine]",5,28,9,55,< 1,11,< 1,< 1
32.6,100,COc1cncc(-c2ccc3[nH]c4nccc(N[C@H]5CC[C@H](N6CCN(S(C)(=O)=O)CC6)CC5)c4c3c2)c1 [Compound 17c],7,88,23,99,2,53,2,52
1360,50,"c1cc(-c2ccc3c(c2)[nH]c2ncnc(N[C@H]4CC[C@H](N5CCOCC5)CC4)c23)ccn1 [Compound 6caa, N-(trans-4-morpholinocyclohexyl)-7-(pyridin-4-yl)-9H-pyrimido[4,5-b]indole-4-amine]",5,40,40,60,5,10,1,10
151,99,"Fc1cc(F)cc(-c2ccc3[nH]c4ncnc(N[C@H]5CC[C@H](N6CCOCC6)CC5)c4c3c2)c1 [Compound 6aal, 6-(3,5-difluorophenyl)-N-(trans-4-morpholinocyclohexyl)-9H-pyrimido[4,5-b]indole-4-amine]",13,57,18,70,< 1,15,1,17
67.6,98,"O=[N+]([O-])c1cccc(-c2ccc3[nH]c4ncnc(N[C@H]5CC[C@H](N6CCOCC6)CC5)c4c3c2)c1 [Compound 6aai, N-(trans-4-morpholinocyclohexyl)-6-(3-nitrophenyl)-9H-pyrimido[4,5-b]indole-4-amine]",13,62,32,87,6,36,9,41
28,100,"Cn1cc(-c2ccc3[nH]c4ncnc(N[C@H]5CC[C@H](N6CCOCC6)CC5)c4c3c2)cn1 [Compound 6aaa, 6-(1-methyl-1H-pyrazol-4-yl)-N-(trans-4-morpholinocyclohexyl)-9H-pyrimido[4,5-b]indole-4-amine]",10.5,42,20,21,23,71,17,55

# Second part, the molecule before the results:
SMILES,IC50 [1] [nM],inhibition at 1 µM [1] [%],inhibition at 0.1 µM [2] [%],inhibition at 1 µM [2] [%],inhibition at 0.1 µM [3] [%],inhibition at 1 µM [3] [%],inhibition at 0.1 µM [4] [%],inhibition at 1 µM [4] [%],inhibition at 0.1 µM [5] [%],inhibition at 1 µM [5] [%]
"c1ncc(-c2ccc3[nH]c4ncnc(N[C@H]5CC[C@H](N6CCOCC6)CC5)c4c3c2)cn1 [Compound 6aac, N-(trans-4-morpholinocyclohexyl)-6-(pyrimidin-5-yl)-9H-pyrimido[4,5-b]indole-4-amine]",12.6,100,24,86,21,84,17,64,7,45
"c1cc(-c2ccc3[nH]c4ncnc(Nc5ccc(N6CCNCC6)cc5)c4c3c2)ccn1 [Compound 6agba, N-(4-(piperazin-1-yl)phenyl)-6-(pyridin-4-yl)-9H-pyrimido[4,5-b]indole-4-amine]",1190,42,26,87,56,74,< 1,6,6,8
"COc1ccc(-c2ccc3[nH]c4ncnc(N[C@H]5CC[C@H](N6CCOCC6)CC5)c4c3c2)cn1 [Compound 6aah, 6-(6-methoxypyridin-3-yl)-N-(trans-4-morpholinocyclohexyl)-9H-pyrimido[4,5-b]indole-4-amine]",40,100,16,67,15,79,19,63,10,47
"N#Cc1cccc(-c2ccc3[nH]c4ncnc(N[C@H]5CC[C@H](N6CCOCC6)CC5)c4c3c2)c1 [Compound 6aak, 3-(4-((trans-4-morpholinocyclohexyl)amino)-9H-pyrimido[4,5-b]indol-6-yl) benzonitrile]",104,98,16,70,53,98,< 1,37,< 1,30
"CCOC(=O)c1ccc2[nH]c3ncnc(N[C@H]4CC[C@H](N(C)C)CC4)c3c2c1 [Compound 5bb, ethyl 4-((trans-4-(dimethylamino)cyclohexyl)amino)-9H-pyrimido[4,5-b]indole-6-carboxylate]",21,83,7.3,47,27.3,90,58,92,43,73
